Data published in patent US9604961B2, “Histone demethylase inhibitors” (Celgene Quanticel Research, Inc., priority 2012, dated 2017).
pIC50: −log10 of the molar value.

Experiments:
Jarid1A = Jarid1A (Homo sapiens (Human), UniProt P29375); test: Jarid1A in vitro enzyme inhibition assay (TR-FRET); format: biochemical
From the text: The enzymatic assay of Jarid1A activity is based upon Time Resolved-Fluorescence Resonance Energy Transfer (TR-FRET) detection.

Jarid1B = Jarid1B (Homo sapiens (Human), UniProt Q9UGL1); test: Jarid1B in vitro enzyme inhibition assay (TR-FRET); format: biochemical
FBXL10 = FBXL10 (Homo sapiens (Human), UniProt Q8NHM5); test: FBXL10 in vitro enzyme inhibition assay (AlphaScreen); format: biochemical
Protocol: Reaction product was determined quantitatively by AlphaScreen detection after the addition of detection reagents anti-H3K36me1 antibody, AlphaScreen® Streptavidin-coated Donor beads, and AlphaScreen® Protein A Acceptor beads in 50 mM HEPES, pH7.3, 10 mM NaCl, 0.005% Brij35, 5 mM EDTA, 2 mg/ml BSA to final 10 μg/ml beads.
Plates were incubated at room temperature for 40 minutes, followed by addition of 3 μl of 50 μg/ml AlphaScreen® Streptavidin-coated Donor beads and AlphaScreen® Protein A Acceptor beads in 50 mM HEPES, pH7.3, 10 mM NaCl, 0.005% Brij35, 5 mM EDTA, 2 mg/ml BSA. Plates were read by EnVisionMultilabel Reader in AlphaScreen mode after a minimum of 2 hour or up to overnight incubation at room temperature. The AlphaScreen signal for each well was used to determine inhibition constant (IC50).

JMJD2C = JMJD2C (Homo sapiens (Human), UniProt Q9H3R0); test: JMJD2C in vitro enzyme inhibition assay (TR-FRET); format: biochemical
JMJD2A = JMJD2A (Homo sapiens (Human), UniProt O75164); test: JMJD2A in vitro enzyme inhibition assay (TR-FRET); settings: read-out: JMJD2A IC50
Chain of JMJD2A (O75164 1-350): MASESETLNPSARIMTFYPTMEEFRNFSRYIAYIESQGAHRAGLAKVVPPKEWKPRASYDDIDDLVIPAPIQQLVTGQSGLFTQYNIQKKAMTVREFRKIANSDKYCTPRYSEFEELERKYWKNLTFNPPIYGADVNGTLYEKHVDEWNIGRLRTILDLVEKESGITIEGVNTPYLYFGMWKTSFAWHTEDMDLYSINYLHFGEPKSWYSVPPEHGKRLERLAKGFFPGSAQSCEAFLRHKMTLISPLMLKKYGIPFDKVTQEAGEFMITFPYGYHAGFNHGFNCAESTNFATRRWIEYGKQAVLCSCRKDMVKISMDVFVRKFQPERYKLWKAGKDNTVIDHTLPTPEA
Protocol: This assay determines the ability of a test compound to inhibit Jarid1A, Jarid1B, JMJD2C, and JMJD2A demethylase activity.
Reaction product was determined quantitatively by TR-FRET after the addition of detection reagent Phycolink Streptavidin-allophycocyanin (Prozyme) and Europium-anti-di-methylated histone H3 lysine 9 (H3K9me2) antibody (PerkinElmer) in the presence of 5 mM EDTA in LANCE detection buffer (PerkinElmer) at a final concentration of 50 nM and 1 nM, respectively.
The assay reaction was initiated by the following: 2 μl of the mixture of 900 nM H3K9me3-biotin labeled peptide and 6 μM alpha-ketoglutaric acid with 2 μl of 11-point serial diluted inhibitor in 3% DMSO were added to each well of plate, followed by the addition of 2 μl of 6 nM JMJD2A to initiate the reaction. The reaction mixture was incubated at room temperature for 30 minutes, and terminated by the addition of 6 μl of 5 mM EDTA in LANCE detection buffer containing 100 nM Phycolink Streptavidin-allophycocyanin and 2 nM Europium-anti-H3K9me2 antibody.

Chain of Jarid1B (Q9UGL1 2-751): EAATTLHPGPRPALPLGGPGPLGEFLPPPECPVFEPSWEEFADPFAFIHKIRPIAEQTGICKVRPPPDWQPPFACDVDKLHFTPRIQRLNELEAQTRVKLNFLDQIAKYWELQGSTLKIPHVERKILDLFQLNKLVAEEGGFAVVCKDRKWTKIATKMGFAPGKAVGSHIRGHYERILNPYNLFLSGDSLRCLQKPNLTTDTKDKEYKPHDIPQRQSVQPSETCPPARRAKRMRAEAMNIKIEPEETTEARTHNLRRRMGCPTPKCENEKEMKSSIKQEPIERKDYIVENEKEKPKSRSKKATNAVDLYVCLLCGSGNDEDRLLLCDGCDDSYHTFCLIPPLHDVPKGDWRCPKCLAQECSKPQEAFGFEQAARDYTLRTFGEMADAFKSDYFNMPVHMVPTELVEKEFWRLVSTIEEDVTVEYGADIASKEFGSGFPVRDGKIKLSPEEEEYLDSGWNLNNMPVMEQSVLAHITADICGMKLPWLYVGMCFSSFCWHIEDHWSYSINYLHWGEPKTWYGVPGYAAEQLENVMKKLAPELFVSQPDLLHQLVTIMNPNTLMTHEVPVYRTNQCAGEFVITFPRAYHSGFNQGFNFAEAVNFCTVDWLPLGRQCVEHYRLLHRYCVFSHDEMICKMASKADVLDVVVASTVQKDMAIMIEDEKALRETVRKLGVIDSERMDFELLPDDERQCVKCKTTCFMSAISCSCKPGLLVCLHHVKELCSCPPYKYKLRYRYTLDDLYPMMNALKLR
Chain of JMJD2C (Q9H3R0 2-372): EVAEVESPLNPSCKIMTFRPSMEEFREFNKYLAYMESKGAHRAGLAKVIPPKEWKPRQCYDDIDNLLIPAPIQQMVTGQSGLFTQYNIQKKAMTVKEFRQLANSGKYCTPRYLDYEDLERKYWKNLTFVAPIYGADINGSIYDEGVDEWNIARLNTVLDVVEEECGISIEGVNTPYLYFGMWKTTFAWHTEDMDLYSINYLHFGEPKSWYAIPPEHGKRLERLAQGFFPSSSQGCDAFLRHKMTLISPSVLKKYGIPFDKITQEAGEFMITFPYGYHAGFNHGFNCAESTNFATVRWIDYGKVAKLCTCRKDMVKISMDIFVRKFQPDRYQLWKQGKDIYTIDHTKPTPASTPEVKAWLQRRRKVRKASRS
Chain of Jarid1A (P29375 1-1090): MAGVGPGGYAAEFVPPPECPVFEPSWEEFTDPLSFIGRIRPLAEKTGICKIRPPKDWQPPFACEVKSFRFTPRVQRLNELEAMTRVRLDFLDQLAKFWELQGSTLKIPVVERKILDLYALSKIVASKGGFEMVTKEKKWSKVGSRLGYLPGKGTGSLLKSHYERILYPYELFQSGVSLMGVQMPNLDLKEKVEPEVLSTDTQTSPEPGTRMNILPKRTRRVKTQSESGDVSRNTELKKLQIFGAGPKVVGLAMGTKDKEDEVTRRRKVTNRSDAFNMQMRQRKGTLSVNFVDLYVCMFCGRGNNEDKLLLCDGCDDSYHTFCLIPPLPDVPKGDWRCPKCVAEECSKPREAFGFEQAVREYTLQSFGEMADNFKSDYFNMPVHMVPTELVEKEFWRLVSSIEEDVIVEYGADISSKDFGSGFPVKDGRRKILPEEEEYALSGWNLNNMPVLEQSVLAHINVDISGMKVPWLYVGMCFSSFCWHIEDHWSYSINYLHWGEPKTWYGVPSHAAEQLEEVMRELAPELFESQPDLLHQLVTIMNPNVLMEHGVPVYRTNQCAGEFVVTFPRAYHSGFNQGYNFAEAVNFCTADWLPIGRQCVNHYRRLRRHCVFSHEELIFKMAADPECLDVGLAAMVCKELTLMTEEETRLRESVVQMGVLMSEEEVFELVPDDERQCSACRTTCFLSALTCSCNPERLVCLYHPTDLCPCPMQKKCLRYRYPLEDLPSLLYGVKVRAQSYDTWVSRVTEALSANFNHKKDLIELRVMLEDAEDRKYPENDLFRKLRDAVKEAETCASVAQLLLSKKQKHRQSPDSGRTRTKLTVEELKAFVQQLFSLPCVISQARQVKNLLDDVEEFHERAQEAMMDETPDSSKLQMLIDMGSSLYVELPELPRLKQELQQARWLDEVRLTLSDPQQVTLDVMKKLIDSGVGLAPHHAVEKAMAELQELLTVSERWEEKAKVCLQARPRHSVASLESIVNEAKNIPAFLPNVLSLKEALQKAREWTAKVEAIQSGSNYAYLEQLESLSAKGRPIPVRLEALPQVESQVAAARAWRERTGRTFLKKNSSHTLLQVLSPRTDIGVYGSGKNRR
Chain of FBXL10 (Q8NHM5 1-650): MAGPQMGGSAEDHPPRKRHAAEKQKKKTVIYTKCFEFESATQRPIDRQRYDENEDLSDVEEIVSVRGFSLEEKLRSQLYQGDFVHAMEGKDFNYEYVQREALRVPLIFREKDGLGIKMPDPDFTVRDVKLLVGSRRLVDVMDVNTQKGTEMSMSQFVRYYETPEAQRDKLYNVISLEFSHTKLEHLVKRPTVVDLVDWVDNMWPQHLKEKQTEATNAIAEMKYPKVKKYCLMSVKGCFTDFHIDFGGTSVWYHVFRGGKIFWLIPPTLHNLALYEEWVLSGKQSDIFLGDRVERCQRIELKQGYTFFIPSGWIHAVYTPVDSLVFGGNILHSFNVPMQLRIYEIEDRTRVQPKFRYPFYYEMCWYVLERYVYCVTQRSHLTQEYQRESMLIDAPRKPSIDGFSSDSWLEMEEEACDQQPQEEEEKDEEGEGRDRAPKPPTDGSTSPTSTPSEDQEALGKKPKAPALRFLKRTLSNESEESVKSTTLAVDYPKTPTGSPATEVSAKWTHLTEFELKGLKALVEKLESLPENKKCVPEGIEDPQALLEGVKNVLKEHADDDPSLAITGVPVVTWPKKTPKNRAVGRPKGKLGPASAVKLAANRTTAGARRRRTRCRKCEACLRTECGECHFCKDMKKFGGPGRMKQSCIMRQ

pIC50 (Jarid1A) | pIC50 (Jarid1B) | pIC50 (FBXL10) | pIC50 (JMJD2C) | pIC50 (JMJD2A) | Compound
6.00 to 7.00 | > 7.00 | 6.00 to 7.00 | 6.00 to 7.00 |  | Cc1cc(O)n(-c2cc(C(=O)O)ccn2)n1 [Example 1, 2-(5-hydroxy-3-methyl-1H-pyrazol-1-yl)isonicotinic acid]
6.00 to 7.00 | > 7.00 | 6.00 to 7.00 | 6.00 to 7.00 |  | Cc1nn(-c2cc(C(=O)O)ccn2)c(O)c1C [Example 3, 2-(5-hydroxy-3,4-dimethyl-1H-pyrazol-1-yl)isonicotinic acid]
5.00 to 6.00 | 5.00 to 6.00 | 6.00 to 7.00 | 5.00 to 6.00 |  | Cc1nn(-c2cc(C(=O)O)ccn2)c(O)c1-c1ccccc1 [Example 4, 2-(5-hydroxy-3-methyl-4-phenyl-1H-pyrazol-1-yl)isonicotinic acid]
5.00 to 6.00 | 5.00 to 6.00 | > 7.00 | 5.00 to 6.00 |  | O=C(O)c1ccnc(-n2nc(-c3ccccc3F)cc2O)c1 [Example 5, 2-(3-(2-fluorophenyl)-5-hydroxy-1H-pyrazol-1-yl)isonicotinic acid]
6.00 to 7.00 | 6.00 to 7.00 | 6.00 to 7.00 | 6.00 to 7.00 |  | CCCc1cc(O)n(-c2cc(C(=O)O)ccn2)n1 [Example 6, 2-(5-hydroxy-3-propyl-1H-pyrazol-1-yl)isonicotinic acid]
5.00 to 6.00 | 5.00 to 6.00 | > 7.00 | < 5.00 |  | O=C(O)c1ccnc(-n2nc(-c3ccccc3Cl)cc2O)c1 [Example 7, 2-(3-(2-chlorophenyl)-5-hydroxy-1H-pyrazol-1-yl)isonicotinic acid]
6.00 to 7.00 | 6.00 to 7.00 | > 7.00 | 5.00 to 6.00 |  | O=C(O)c1ccnc(-n2nc(Cc3ccccc3)cc2O)c1 [Example 8, 2-(3-benzyl-5-hydroxy-1H-pyrazol-1-yl)isonicotinic acid]
6.00 to 7.00 | 6.00 to 7.00 | > 7.00 | 5.00 to 6.00 |  | COCc1cc(O)n(-c2cc(C(=O)O)ccn2)n1 [Example 9, 2-(5-hydroxy-3-(methoxymethyl)-1H-pyrazol-1-yl)isonicotinic acid]
5.00 to 6.00 | 6.00 to 7.00 | > 7.00 | < 5.00 |  | O=C(O)c1ccnc(-n2nc(COc3ccccc3)cc2O)c1 [Example 10, 2-(5-hydroxy-3-(phenoxymethyl)-1H-pyrazol-1-yl)isonicotinic acid]
> 7.00 | > 7.00 | 6.00 to 7.00 | 6.00 to 7.00 |  | O=C(O)c1ccnc(-n2nccc2O)c1 [Example 11, 2-(5-hydroxy-1H-pyrazol-1-yl)isonicotinic acid]
6.00 to 7.00 | 6.00 to 7.00 |  | 6.00 to 7.00 | 6.00 to 7.00 | Cc1ccc(-c2ccnn2-c2cc(C(=O)O)ccn2)cc1 [Example 12, 2-(5-p-tolyl-1H-pyrazol-1-yl)isonicotinic acid]
6.00 to 7.00 | 6.00 to 7.00 |  | 6.00 to 7.00 | 6.00 to 7.00 | O=C(O)c1ccnc(-n2nccc2-c2ccc(F)cc2F)c1 [Example 14, 2-(5-(2,4-difluorophenyl)-1H-pyrazol-1-yl)isonicotinic acid]
6.00 to 7.00 | 6.00 to 7.00 |  | 6.00 to 7.00 | 6.00 to 7.00 | O=C(O)c1ccnc(-n2nccc2-c2cccc(O)c2)c1 [Example 17, 2-(5-(3-hydroxyphenyl)-1H-pyrazol-1-yl)isonicotinic acid]
6.00 to 7.00 | 6.00 to 7.00 | < 5.00 | 6.00 to 7.00 |  | O=C(O)c1ccnc(-n2nccc2-c2ccc(F)cc2)c1 [Example 27, 2-(5-(4-fluorophenyl)-1H-pyrazol-1-yl)isonicotinic acid]
< 5.00 | < 5.00 | 5.00 to 6.00 | < 5.00 |  | O=C(O)c1ccnc(-n2nccc2Cc2ccccc2)c1 [Example 32, 2-(5-benzyl-1H-pyrazol-1-yl)isonicotinic acid]
5.00 to 6.00 | 5.00 to 6.00 | 5.00 to 6.00 | 5.00 to 6.00 |  | O=C(O)c1ccnc(-n2ccc(Cc3ccccc3)n2)c1 [Example 33, 2-(3-benzyl-1H-pyrazol-1-yl)isonicotinic acid]
6.00 to 7.00 | 6.00 to 7.00 |  | 6.00 to 7.00 | 6.00 to 7.00 | O=C(O)c1ccnc(-n2ccc(CCc3ccccc3)n2)c1 [Example 35, 2-(3-phenethyl-1H-pyrazol-1-yl)isonicotinic acid]

pIC50 (Jarid1A) | pIC50 (Jarid1B) | pIC50 (FBXL10) | pIC50 (JMJD2C) | pIC50 (JMJD2A) | Compound
> 7.00 | > 7.00 |  | > 7.00 | > 7.00 | O=C(O)c1ccnc(-n2nccc2OCc2ccccc2)c1 [Example 39, 2-(5-(benzyloxy)-1H-pyrazol-1-yl)isonicotinic acid]
> 7.00 | > 7.00 | < 5.00 | > 7.00 |  | O=C(O)c1ccnc(-n2nccc2OCc2ccc(F)cc2)c1 [Example 40, 2-{5-[(4-fluorobenzyl)oxy]-1H-pyrazol-1-yl}pyridine-4-carboxylic acid]
6.00 to 7.00 | 6.00 to 7.00 | 6.00 to 7.00 | 5.00 to 6.00 |  | O=C(O)c1ccnc(-n2nccc2OCc2ccc3cn[nH]c3c2)c1 [Example 49, 2-[5-(1H-indazol-6-ylmethoxy)-1H-pyrazol-1-yl]pyridine-4-carboxylic acid]
> 7.00 | > 7.00 | 5.00 to 6.00 | > 7.00 |  | Cc1ccc(COc2ccnn2-c2cc(C(=O)O)ccn2)cc1 [Example 55, 2-{5-[(4-methylbenzyl)oxy]-1H-pyrazol-1-yl}pyridine-4-carboxylic acid]
> 7.00 | > 7.00 | 5.00 to 6.00 | 6.00 to 7.00 |  | CCc1ccc(COc2ccnn2-c2cc(C(=O)O)ccn2)cc1 [Example 56, 2-{5-[(4-ethylbenzyl)oxy]-1H-pyrazol-1-yl}pyridine-4-carboxylic acid]
> 7.00 | > 7.00 | 5.00 to 6.00 | > 7.00 |  | Cc1ccc(COc2ccnn2-c2cc(C(=O)O)ccn2)cc1Cl [Example 92, 2-[5-[(3-chloro-4-methylphenyl)methoxy]pyrazol-1-yl]pyridine-4-carboxylic acid]
> 7.00 | > 7.00 | 5.00 to 6.00 | > 7.00 |  | N#Cc1ccc(COc2ccnn2-c2cc(C(=O)O)ccn2)cc1 [Example 99, 2-[5-[(4-cyanophenyl)methoxy]pyrazol-1-yl]pyridine-4-carboxylic acid]
> 7.00 | > 7.00 | 6.00 to 7.00 | 6.00 to 7.00 |  | O=C(O)c1ccnc(-n2nccc2OCc2ccc(Cl)cc2OCc2ccccc2)c1 [Example 105, 2-[5-[(4-chloro-2-phenylmethoxyphenyl)methoxy]pyrazol-1-yl]pyridine-4-carboxylic acid]
> 7.00 | > 7.00 | 5.00 to 6.00 | 6.00 to 7.00 |  | O=C(O)c1ccnc(-n2nccc2OCc2ccc(Cl)cc2OCC2CC2)c1 [Example 106, 2-[5-[[4-chloro-2-(cyclopropylmethoxy)phenyl]methoxy]pyrazol-1-yl]pyridine-4-carboxylic acid]
> 7.00 | > 7.00 | 5.00 to 6.00 | 6.00 to 7.00 |  | O=C(O)c1ccnc(-n2nccc2OCc2ccc(Cl)cc2OCC(F)(F)F)c1 [Example 108, 2-[5-[[4-chloro-2-(2,2,2-trifluoroethoxy)phenyl]methoxy]pyrazol-1-yl]pyridine-4-carboxylic acid]
> 7.00 | > 7.00 | < 5.00 | > 7.00 |  | CN(CCc1cnn(-c2cc(C(=O)O)ccn2)c1)Cc1ccc(F)cc1 [Example 156, 2-[4-[2-[(4-fluorophenyl)methyl-methylamino]ethyl]pyrazol-1-yl]pyridine-4-carboxylic acid]
 | 5.00 to 6.00 | > 7.00 | 5.00 to 6.00 | < 5.00 | CC(c1ccccc1)c1cc(O)n(-c2cc(C(=O)O)ccn2)n1 (stereo not drawn) [Example 162, 2-[5-hydroxy-3-(1-phenylethyl)pyrazol-1-yl]pyridine-4-carboxylic acid]
 | 5.00 to 6.00 | > 7.00 | 5.00 to 6.00 | < 5.00 | O=C(O)c1ccnc(-n2nc(Cc3ccccc3Cl)cc2O)c1 [Example 163, 2-[3-[(2-chlorophenyl)methyl]-5-hydroxypyrazol-1-yl]pyridine-4-carboxylic acid]
 | 5.00 to 6.00 | > 7.00 | 5.00 to 6.00 | < 5.00 | O=C(O)c1ccnc(-n2nc(Cc3cccc(Cl)c3)cc2O)c1 [Example 164, 2-[3-[(3-chlorophenyl)methyl]-5-hydroxypyrazol-1-yl]pyridine-4-carboxylic acid]
 | 6.00 to 7.00 | > 7.00 | 5.00 to 6.00 | < 5.00 | O=C(O)c1ccnc(-n2nc(Cc3ccc(Cl)cc3)cc2O)c1 [Example 165, 2-[3-[(4-chlorophenyl)methyl]-5-hydroxypyrazol-1-yl]pyridine-4-carboxylic acid]
 | 5.00 to 6.00 | > 7.00 | 5.00 to 6.00 | < 5.00 | Oc1cc(Cc2ccc(Cl)cc2)nn1-c1cc(-c2nnn[nH]2)ccn1 [Example 169, 5-[(4-chlorophenyl)methyl]-2-[4-(1H-tetrazol-5-yl)pyridin-2-yl]pyrazol-3-ol]
